{"source": "paper PMC13172357", "about": "(Nature Communications, 2026)", "key": {"[1]": {"target": "T1, human USP7 full length protein (Homo sapiens, UniProt Q93009)", "T1 construct": "human USP7 full length protein", "T1 sequence (Q93009 whole entry)": "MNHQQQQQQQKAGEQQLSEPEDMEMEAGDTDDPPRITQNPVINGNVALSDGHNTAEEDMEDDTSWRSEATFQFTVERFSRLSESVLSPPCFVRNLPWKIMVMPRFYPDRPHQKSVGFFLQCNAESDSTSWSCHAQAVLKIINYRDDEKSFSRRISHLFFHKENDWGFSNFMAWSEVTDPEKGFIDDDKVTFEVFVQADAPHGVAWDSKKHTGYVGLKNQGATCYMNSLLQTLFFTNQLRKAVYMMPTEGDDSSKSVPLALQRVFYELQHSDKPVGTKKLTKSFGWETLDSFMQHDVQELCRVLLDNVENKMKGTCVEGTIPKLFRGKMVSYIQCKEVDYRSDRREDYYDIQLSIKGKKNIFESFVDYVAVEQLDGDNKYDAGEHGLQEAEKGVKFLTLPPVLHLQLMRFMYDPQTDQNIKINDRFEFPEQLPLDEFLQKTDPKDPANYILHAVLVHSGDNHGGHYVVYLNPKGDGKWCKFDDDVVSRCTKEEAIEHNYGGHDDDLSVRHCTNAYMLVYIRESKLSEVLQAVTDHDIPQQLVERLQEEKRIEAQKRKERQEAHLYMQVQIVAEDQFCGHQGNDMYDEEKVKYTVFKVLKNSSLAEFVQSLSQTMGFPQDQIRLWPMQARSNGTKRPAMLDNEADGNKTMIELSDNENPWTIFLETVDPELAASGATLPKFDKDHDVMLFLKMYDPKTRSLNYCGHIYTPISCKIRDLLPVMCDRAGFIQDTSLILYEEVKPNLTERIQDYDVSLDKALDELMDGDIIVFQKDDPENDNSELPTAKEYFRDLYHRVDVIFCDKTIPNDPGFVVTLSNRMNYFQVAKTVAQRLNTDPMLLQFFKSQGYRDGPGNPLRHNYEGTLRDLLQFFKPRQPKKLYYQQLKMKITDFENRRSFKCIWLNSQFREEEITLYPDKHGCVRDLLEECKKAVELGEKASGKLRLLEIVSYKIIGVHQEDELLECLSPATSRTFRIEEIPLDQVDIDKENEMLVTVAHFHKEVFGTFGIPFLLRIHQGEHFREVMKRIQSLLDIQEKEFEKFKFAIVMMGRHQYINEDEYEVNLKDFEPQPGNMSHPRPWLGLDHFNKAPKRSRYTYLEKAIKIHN", "experiment": "USP7 inhibition assay (Ubiquitin-Rhodamine110Gly cleavage)", "type": "biochemical", "details": "Ub-RhoG cleavage, read-out: IC50 (half-maximal inhibition)", "protocol": "USP7 inhibitors in DMSO were diluted in UbR buffer (40 mM Tris-HCl pH 8, 150 mM NaCl, 1 mM TCEP, 0.1 mg/mL BSA, 0.01% Tween20) to a concentration of 80 μM (4x). This stock was then further diluted in an 11-times serial dilution in UbR buffer containing 4% DMSO (4x). To this was added the same volume of human USP7 full length protein[59] […] The assay was initiated upon addition of 10 μL per well of Ubiquitin-Rhodamine110Gly (Ub-RhoG) (100 nM in UbR buffer, 2x). […] Normalization was carried out using samples featuring either no inhibitor or no enzyme as respective controls. […] Slopes of fluorescence over time curves were determined with Microsoft Excel through linear regression using the first 15 min of each measurement."}, "USP7 [2]": {"target": "T2, USP7 (Homo sapiens, UniProt Q93009)", "T2 construct": "allowed the analysis of endogenous USP7 degradation in both cell lines; endogenous in cells; host or cells: Panc89 (PDAC) and Ma-Mel-47 (melanoma) cells", "T2 sequence (Q93009 whole entry)": "as above", "experiment": "PROTAC rescue experiments, Western blot, Panc89 and Ma-Mel-47 cells", "type": "cell-based", "details": "2 h pretreatment (MLN4924 500 nM, CFZ 250 nM, NK249 10 µM), then 1 µM NK250 or NK266 for 20 h", "protocol": "Cells were treated with proteasome inhibitor Carfilzomib (CFZ, 250 nM), NEDDylation Inhibitor MLN4924 (500 nM) or VHL inhibitor NK249 (10 µM). After 2 h, PROTAC (1 µM) was added. Cells were analyzed after 20 h."}, "[3]": {"target": "T3, NanoLuc-USP7 and HaloTag-VHL (Homo sapiens, UniProt P40337+Q93009)", "T3 construct": "expressed in transfected cells; host or cells: HEK293T, transient transfection (FuGENE HD)", "T3 sequence (Q93009 whole entry)": "as above", "T3 sequence (P40337 whole entry)": "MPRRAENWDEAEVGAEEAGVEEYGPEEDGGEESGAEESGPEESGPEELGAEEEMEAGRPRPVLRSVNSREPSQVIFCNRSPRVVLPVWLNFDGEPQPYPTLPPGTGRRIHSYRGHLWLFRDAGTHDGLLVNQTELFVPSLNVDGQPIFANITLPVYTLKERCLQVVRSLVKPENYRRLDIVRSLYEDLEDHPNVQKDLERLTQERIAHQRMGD", "T3 sequence (Q15370 whole entry partner)": "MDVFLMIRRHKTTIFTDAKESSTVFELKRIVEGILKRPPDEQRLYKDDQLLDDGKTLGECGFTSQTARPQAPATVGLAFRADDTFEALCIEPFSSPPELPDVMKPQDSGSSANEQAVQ", "T3 sequence (Q15369 whole entry partner)": "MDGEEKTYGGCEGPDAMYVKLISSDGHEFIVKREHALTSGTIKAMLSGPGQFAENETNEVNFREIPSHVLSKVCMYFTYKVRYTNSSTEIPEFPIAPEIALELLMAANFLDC", "experiment": "Cellular ternary complex formation assay (NanoBRET), HEK293T cells", "type": "cell-based", "details": "for Ternary complex induction (in words): NanoBRET", "protocol": "The assay was performed as described step-by-step elsewhere. USP7 (NanoLuc-USP7) and VHL (HaloTag-VHL) were cloned in frame with N-terminal NanoLuc or HaloTag, respectively. For transfections, HEK293T cells were diluted in Opti-MEM medium without phenol red (Life Technologies) to 4×10^5 cells/mL and 9 µL were pipetted into each well of a white 384-well plate (Greiner 781207). 1 mL transfection mix was prepared containing 30 µL FuGENE HD (Promega, E2312) and 8 µL of each plasmid, incubated 20 min at RT and 1 µL were pipetted into each well leading to the total assay volume of 10 µL. […] 2 h prior to BRET measurements, the compounds were titrated to the cells using an Echo acoustic dispenser and the cells were incubated further at 37 °C and 5% CO2 to allow complex formation. NanoBRET Nano-Glo substrate and Extracellular NanoLuc Inhibitor (Promega, N2540) were then added as per the manufacturer’s protocol, and filtered luminescence was recorded on a PHERAstar FSX plate reader (BMG Labtech) equipped with a luminescence filter pair (donor: 450 nm BP filter; acceptor: 610 nm LP filter). Data were analyzed using GraphPad Prism 10 software."}, "Panc89 cells": {"system": "Panc89 cells", "experiment": "Confluence measurement (cell growth), Panc89", "type": "cell-based, human", "details": "Panc89, 1-10 µM, 72 h, 25 mM or 5 mM D-glucose"}, "[4]": {"system": "Ma-Mel-47 USP7 K.O. cells", "experiment": "Medium color switch (images), Ma-Mel-47 USP7 K.O. cells", "type": "cell-based, human", "details": "Ma-Mel-47 USP7-KO, 72 h, 5 µM NK192, 10 µM FT671, 1 µM NK266"}, "USP7 [5]": {"target": "T2, USP7", "experiment": "USP7 degradation, Western blot densitometry, Panc89 cells", "type": "cell-based", "details": "Panc89, 5 µM, 24 h, Western blot", "protocol": "(§1) The melanoma cell line Ma-Mel-47 (established previously[57] from metastatic lesions from patient tumor tissues after written informed consent) and the PDAC cell line Panc89 (RRID: CVCL_4056, also referenced as T3M-4[58]) were cultured in a humidified incubator with 5% CO2 at 37 °C in RPMI1640 (Ma-Mel-47) / DMEM (Panc89) medium containing 10% (v/v) fetal calf serum (FCS) and penicillin/streptomycin (all Gibco, Thermo Fisher Scientific). Studies on human material were approved by the institutional review board. […] Testing for mycoplasma was performed by PCR monthly. To confirm cell identity, STR analysis was performed by the Microsynth Seqlab GmbH.\n(§2) To prepare samples for Western blot analysis, cells were seeded in 6-well dishes the day before treatment to adhere at 70–80% confluency.\n(§3) Cell pellets of all PDAC samples were lysed via adding a buffer containing 150 mM NaCl, 50 mM Tris/HCl (pH 7.4), 1% Triton X-100, 10 mM EDTA, 1 mM PMSF, 10 mM orthovanadate, and 1% aprotinin, incubating on ice for 1 h with vortexing every 15 minutes. Lysates were cleared of cell debris by centrifugation at 10,000 ×g at 4 °C for 10 min. […] Lysates were then clarified of cell debris by centrifugation at 13,000 ×g at 4 °C for 15 min. Thereafter, the total protein concentrations were either determined immediately or the protein extracts were stored at −20 or −80 °C. Pellets for samples shown in Fig. 6 and Supplementary Fig. 6 were lysed in 120 µL lysis buffer (50 mM Tris pH 8.0, 150 mM NaCl, 1% (v/v) IGEPAL, 0.5% (w/v) Na-deoxycholate, 0.1% (w/v) SDS) supplemented with 1x EDTA-free inhibitor protease cocktail (cOmplete, Roche) for 15 min at 4 °C. 0.2 µL Turbonuclease (Sigma Aldrich) and 5 mM MgCl2 were then added and lysates were incubated for 15 min at 4 °C. Cell debris was separated by centrifugation at 20,817 ×g for 15 min at 4 °C.\n(§4) Protein concentrations of cell lysates were measured using the Pierce BCA Protein Assay (Thermo Fisher Scientific) or the Quick Start Bradford Protein Assay (Bio-Rad), following the manufacturers’ protocols. Measurements were recorded on Tecan Spark or Tecan Infinite M200 plate readers. Lysates were kept on ice throughout the entire process.\n(§5) To separate proteins via SDS-PAGE, 10-20 µg of protein in lysis buffer was diluted with SDS-PAGE loading buffer (for most blots containing DTT or 2-mercaptoethanol) and denatured at 95 °C for 5 min. Protein separation was conducted at 95–110 V using the Mini-PROTEAN electrophoresis system (Bio-Rad). Proteins were then transferred to PVDF or nitrocellulose membranes using the Trans-Blot Turbo system (Bio-Rad) with the Trans-Blot Turbo RTA Kit for PVDF membranes. Prior to transfer, membranes were activated by soaking in 100% ethanol (for PVDF) or distilled water (for nitrocellulose) and proteins were transferred using the Mixed MW or the standard (1.0 A, 25 V, 30 min) protocol.\n(§6) After transfer, membranes were blocked in 5% (w/v) milk/TBS-T for 1 h and then washed three times for 10 min with TBS-T. They were incubated overnight at 4 °C with the primary antibody in 5% (w/v) milk/TBS-T or 1% (w/v) BSA/TBS-T. Membranes were then washed three times for 10 min with TBS-T and incubated with horseradish peroxidase (HRP)-conjugated secondary antibodies in a solution of 5% (w/v) BSA/TBS-T or 1% (w/v) milk/TBS-T for 1 h at room temperature. PBS-T was used for blots shown in Fig. 6 and Supplementary Fig. 6.\n(§7) Membranes were incubated with Clarity Western ECL substrate (Bio-Rad) for PDAC samples or Pierce ECL Western Blotting-Substrate (Thermo Fisher Scientific) for melanoma. Chemiluminescent signals were detected with a ChemiDoc Imaging System (Bio-Rad) for PDAC samples or with a ECL Chemostar Imager (Intas Science Imaging) for melanoma samples.\n(§8) Densitometric quantification of band intensities for Fig. 2c, d was performed using the ImageJ software."}, "USP7 [6]": {"target": "T2, USP7", "experiment": "USP7 degradation, Western blot densitometry, Ma-Mel-47 cells", "type": "cell-based", "details": "Ma-Mel-47, 5 µM, 24 h, Western blot", "protocol": "as §1, §2, §3, §4, §5, §6, §7, §8"}, "HiBiT-USP7": {"target": "HiBiT-USP7 (Homo sapiens, UniProt Q93009)", "sequence (Q93009 whole entry, the tested form may be a part)": "as the sequence (Q93009 whole entry) above", "experiment": "HiBiT USP7 degradation assay, MV4-11 cells", "type": "cell-based", "details": "MV4-11 HiBiT-USP7, 6 h and 24 h", "protocol": "HiBiT-USP7 construct was cloned by extraction of USP7 fragment from plasmid pQHA-USP7 WT puroR (Addgene #46753) using appropriate restriction sites. The USP7 fragment was then ligated into the pRRL-PGK-HiBiT entry vector to generate the plasmid.\nLentiviral infection was used to generate stable a MV4-11 HiBiT cell line. Lentivirus was produced using plasmids psPAX2, pMD2.G, and HiBiT-USP7 plasmid in HEK293 cells. MV4-11 cells were infected with filtered virus supernatant and selected after 48 h of infection for the generation of the stable MV4-11^HiBiT-USP7 cell line.\nThe assay was performed as described previously. Briefly, MV4-11^HiBiT-USP7 cells were seeded and treated with compounds for the indicated time. Nano-Glo HiBiT Lytic Detection System (Promega) was used for the assay and luminescence was measured on a Tecan Spark microplate reader (Tecan). DC50 values were calculated using the sigmoidal dose-response (four parameters) equation in GraphPad Prism and are given as the concentration where 50% of the total signal was remaining. Dmax values are given as the maximum degradation observed at any concentration."}}}
{"smiles": "CC(=O)c1cc([N+](=O)[O-])c(Sc2cccc(Cl)c2Cl)s1", "note": "[P5091]", "values": [{"measurement": "IC50", "setting": "[1]", "result": 2070, "unit": "nM"}]}
{"smiles": "CN1CCN(CCC(=O)Nc2ccc3c(=O)n(CC4(O)CCN(C(=O)[C@@H](CCCNC(=O)c5ccc6c(Cl)c7c(nc6c5)CCCC7)Cc5ccccc5)CC4)cnc3c2)CC1", "note": "[XL177A]", "values": [{"measurement": "IC50", "setting": "[1]", "result": 91, "unit": "nM"}]}
{"smiles": "CCc1c(-c2ccc3[nH]ncc3c2)cnc(N)c1-c1ccc(O)cc1", "note": "[GNE-6640]", "values": [{"measurement": "IC50", "setting": "[1]", "result": 545, "unit": "nM"}]}
{"smiles": "Cc1ncsc1-c1ccc([C@H](C)NC(=O)[C@@H]2C[C@@H](O)CN2C(=O)[C@@H](NC(=O)C2(F)CC2)C(C)(C)C)cc1", "note": "[NK249]", "values": [{"measurement": "Rescue of PROTAC-mediated USP7 degradation (in words)", "setting": "USP7 [2]", "result": "rescued PROTAC-mediated degradation of USP7"}]}
{"smiles": "CC(CC(=O)N1CCC(O)(Cn2cnc3c(cnn3-c3ccc(N4CCN(C(=O)CCOCCOCCOCCNC(=O)CCCCC5SCC6NC(=O)NC65)CC4)cc3)c2=O)CC1)c1ccccc1", "note": "(stereo not shown) [NK264]", "values": [{"measurement": "IC50", "setting": "[1]", "result": 15, "unit": "nM"}]}
{"smiles": "CC(C)C[C@H](NC(=O)[C@H](CCc1ccccc1)NC(=O)CN1CCOCC1)C(=O)N[C@@H](Cc1ccccc1)C(=O)N[C@@H](CC(C)C)C(=O)[C@@]1(C)CO1", "note": "[carfilzomib, Carfilzomib]", "values": [{"measurement": "Rescue of PROTAC-mediated USP7 degradation (in words)", "setting": "USP7 [2]", "result": "rescued PROTAC-mediated degradation of USP7"}]}
{"smiles": "Cc1ncsc1-c1ccc(CNC(=O)[C@@H]2C[C@@H](O)CN2C(=O)[C@@H](NC(=O)C2(C#N)CC2)C(C)(C)C)cc1", "note": "[VH298, reference compound]", "values": [{"measurement": "Ternary complex induction (in words)", "setting": "[3]", "result": "neither the negative control NK245 nor the VHL ligand VH298 induced a ternary complex"}]}
{"smiles": "NS(=O)(=O)OC[C@@H]1C[C@@H](n2ccc3c(N[C@H]4CCc5ccccc54)ncnc32)C[C@@H]1O", "note": "[MLN4924, Pevonedistat]", "values": [{"measurement": "Rescue of PROTAC-mediated USP7 degradation (in words)", "setting": "USP7 [2]", "result": "rescued PROTAC-mediated degradation of USP7"}]}
{"smiles": "O=C(C[C@@H](C(F)F)n1ccc(F)n1)N1CCC(O)(Cn2cnc3c(cnn3-c3ccc(F)cc3)c2=O)CC1", "note": "[FT671, reference compound]", "values": [{"measurement": "IC50", "setting": "[1]", "result": 13, "unit": "nM"}, {"measurement": "Cell growth (in words)", "setting": "Panc89 cells", "result": "not affected"}, {"measurement": "Change of media color (in words)", "setting": "[4]", "result": "the same change of media color"}]}
{"smiles": "Cc1ncsc1-c1ccc(CNC(=O)C2CC(O)CN2C(=O)C(NC(=O)C2CCC(C(=O)N3CCN(c4ccc(-n5ncc6c(=O)n(CC7(O)CCN(C(=O)CC(C)c8ccccc8)CC7)cnc65)cc4)CC3)CC2)C(C)(C)C)cc1", "note": "(stereo not shown) [NK225]", "values": [{"measurement": "USP7 degradation (in words)", "setting": "USP7 [5]", "result": "effectively degraded USP7"}, {"measurement": "USP7 degradation (in words)", "setting": "USP7 [6]", "result": "robust degradation of USP7"}, {"measurement": "HiBiT-USP7 levels (in words)", "setting": "HiBiT-USP7", "result": "lower potency"}, {"measurement": "EC50", "setting": "[3]; compound 2 h prior BRET measurement, read-out: EC50 (half-maximal ternary complex formation concentration)", "result": 144, "unit": "nM"}]}
{"smiles": "Cc1ncsc1-c1ccc(CNC(=O)[C@@H]2C[C@@H](O)CN2C(=O)[C@@H](NC(=O)C23C4C5C2C2C3C4C52C(=O)N2CCC(C3CCN(c4ccc(-n5ncc6c(=O)n(CC7(O)CCN(C(=O)C[C@@H](C)c8ccccc8)CC7)cnc65)cc4)CC3)CC2)C(C)(C)C)cc1", "note": "(stereo partly shown) [NK233]", "values": [{"measurement": "USP7 degradation (in words)", "setting": "USP7 [5]", "result": "effectively degraded USP7"}, {"measurement": "USP7 degradation (in words)", "setting": "USP7 [6]", "result": "robust degradation of USP7"}, {"measurement": "HiBiT-USP7 levels (in words)", "setting": "HiBiT-USP7", "result": "lower potency"}, {"measurement": "Ternary complex induction (in words)", "setting": "[3]", "result": "did not increase the BRET signal to the same level"}]}
